Data: patent publication US20250290915A1, “METHOD FOR PREDICTING RESPONSIVENESS TO THERAPY” (CANCERTAIN LIMITED, priority 2022, published 2025)

What was measured:
[1] = tested on: Cancer Cells from tissue sample (CSCs, tumour marker+ cells) of a patient with GI cancer (Cholangio Carcinoma, stage 4); test: Drug response score assay on tissue sample, Example 9; assay type: cell-based, human; conditions: for effectiveness on Cancer Cells from tissue sample under laboratory conditions: GI cancer (Cholangio Carcinoma) tissue sample; for Drug sensitivity as calculated by the assay, Tissue: interpretation based on Drug Response Scores; for Drug sensitivity as calculated by the assay, Tissue / Drug response score, conc. 1 / Drug response score, conc. 2 / Drug response score, conc. 3 / Drug response score, conc. 4: tissue sample; for Drug response score, conc. 1: conc. 1 per Table 27B: Pem 20, Niv 20, Atez 100, Pacli 0.05, Irino 5, Beva 1 μg/ml, Len 50, 5-FU 250 ng/ml; for Drug response score, conc. 2: conc. 2 per Table 27B: Pem 40, Niv 40, Atez 200, Pacli 0.1, Irino 10, Beva 2 μg/ml, Len 100, 5-FU 500 ng/ml; for Drug response score, conc. 3: conc. 3 per Table 27B: Pem 100, Niv 80, Atez 400, Pacli 0.2, Irino 25, Beva 4 μg/ml, Len 200, 5-FU 1000 ng/ml; for Drug response score, conc. 4: conc. 4 per Table 27B: Pem 160, Niv 160, Atez 800, Pacli 1, Irino 50, Beva 8 μg/ml, Len 400, 5-FU 2000 ng/ml
Description: (§1) Where a tissue sample was provided by each subject, cancer stem cells (CSCs, CD133^+), were isolated from said sample. Tumour marker cells were further isolated from each tissue sample. The remaining cells were designated tumour marker^+ cells.
(§2) First, disaggregation of the tissue samples was carried out. Disaggregation was dependent on the size of the tissue sample and the method of retrieval: • EBUS (Endobronchial Ultrasound Scan and Biopsy)—very small fragments of tissue in solution-spun at 1200 rpm for 5 minutes to collect tissue pellet • Bronchoscopy-larger fragments with larger amount of blood vessels • Broncho-lavage-similar to EBUS, spun at 1200 rpm for 5 minutes to collet tissue pellet
(§3) Once a pellet of tissue obtained, DMEM added to the tissue pellet and the material forced through a […] Smart strainer. Once a cell suspension was achieved, this was spun at 1200 rpm for 5 minutes and the supernatant removed. The cells were then resuspended to a volume of 60 μl.
(§4) 20 μl of FcR block and 20 μl of CD133 microbeads were added to the resuspended cells, followed by incubation for 15 minutes at 4° C. The cells were then processed using an AutoMACS machine. This separates the […] into CD133^+ and CD133^− cells in 2 separate falcons. The falcon tubes are then centrifuged at 1200 rpm for 5 minutes.
(§5) The supernatant was removed from the CD133+falcon tube, and the cells resuspended in DMEM with 2 μl Cell Tox, 2 μl MT and 2 μl MT. 20 μl of the resuspended […] was then plated in each well which will contain an immunotherapy treatment.
(§6) The supernatant was removed from the CD133^− falcon tube, and the CD133^− cells contacted with 40 μl of a tumour separation microbeads cocktail containing microbeads bound to anti-CD31, anti-CD45, anti-Glycophorin-A (Gly-A) and an anti-fibroblast antibody.
(§7) This cocktail is used to separate out tumour marker cells using MACS, by separating out CD31^+, CD45^+ and Gly-A^+ cells. In addition, anti-fibroblast antibody-labelled beads are also used. The cocktail is added to the CD133^− falcon tube, followed by incubation for 15 minutes at 4° C. MACS is carried out using an AutoMACS machine. This cells which are not bound by the CD31, CD45, Gly-A and anti-fibroblast antibody beads are the tumour marker^+ cells.
(§8) The different cell types were each divided equally into populations, depending on the number of drugs/concentrations to be tested and plated on a cell-culture plate pre-coated with a scaffold of polycaprolactone (PCL) electrospun fibres and incubated at 37° C., 5% CO2, for 5 to (typically 10) minutes to facilitate cell attachment. After attachment, an initial imaging step was carried out using the RealTime-Glo™ MT assay from Promega (Catalogue No. G9711)) and the CellTox™ Green Cytotoxicity Assay (Promega, Catalogue No. G8741), carried out according to manufacturer's instructions. Following this initial imagining, the immunotherapeutic and/or chemotherapeutic agents were added to the cell populations as indicated below. After 10 minutes, the imagining step was repeated. The cell populations were then incubated at 37° C., 5% CO2 for 48 hours. The imaging step was then repeated. The cell populations were then re-dosed with the same immunotherapeutic and/or chemotherapeutic agents as indicated below, and incubated at 37° C., 5% CO2 for a further 48 hours. After this second 48 hour incubation, the imagining step was repeated for a final time.
(§9) At the end of this culture period, dose response scores were calculated using a normalized drug response metric as described in Gupta et al. (Communications Biology volume 3, Article number: 42 (2020), https://doi.org/10.1038/s42003-020-0765-z). The start readout for a given immunotherapeutic or chemotherapeutic agent at a given concentration was the to readout for said immunotherapeutic or chemotherapeutic agent at a specified concentration. […]

[2] = tested on: cancer cells derived from the tissue sample of a patient with osteosarcoma; test: Drug response score assay on tissue sample, Example 10; assay type: cell-based, human; parameters: key to Drug response score, conc. 1 / Drug response score, conc. 2 / Drug response score, conc. 3 / Drug response score, conc. 4: normalized drug response metric per Gupta et al. 2020; conditions: for effectiveness on the cancer cells derived from the tissue sample under laboratory conditions / Drug sensitivity as calculated by the assay (interpretation of Drug Response Scores): osteosarcoma tissue sample; for Drug sensitivity as calculated by the assay (interpretation of Drug Response Scores): Table 33; for Drug response score, conc. 1 / Drug response score, conc. 2 / Drug response score, conc. 3 / Drug response score, conc. 4: tissue sample; for Drug response score, conc. 1: conc. 1 per Table 31: Etop 1, DTIC 1.5, Ifos 0.125, Doce 0.02, Irinotecan 5 μg/ml; for Drug response score, conc. 2: conc. 2 per Table 31: Etop 4, DTIC 3, Ifos 0.25, Doce 0.2, Irinotecan 10 μg/ml; for Drug response score, conc. 3: conc. 3 per Table 31: Etop 20, DTIC 6, Ifos 5, Doce 2, Irinotecan 25 μg/ml; for Drug response score, conc. 4: conc. 4 per Table 31: Etop 100, DTIC 12, Ifos 10, Doce 10, Irinotecan 50 μg/ml
Description: as §1, §2, §3, §4, §5, §6, §7, §8, §9

Compound | effectiveness on Cancer Cells from tissue sample under laboratory conditions [1] | Drug sensitivity as calculated by the assay, Tissue [1] | Drug response score, conc. 1 [1] | Drug response score, conc. 2 [1] | Drug response score, conc. 3 [1] | Drug response score, conc. 4 [1] | effectiveness on the cancer cells derived from the tissue sample under laboratory conditions [2] | Drug sensitivity as calculated by the assay (interpretation of Drug Response Scores) [2] | Drug response score, conc. 1 [2] | Drug response score, conc. 2 [2] | Drug response score, conc. 3 [2] | Drug response score, conc. 4 [2]
COc1cc2nccc(Oc3ccc(NC(=O)NC4CC4)c(Cl)c3)c2cc1C(N)=O [Lenvatinib] | S+ | S+ | 0.9082 | 0.9132 | 0.8739 | 0.9434 | – | – | – | – | – | –
CC(=O)O[C@H]1C(=O)[C@@]2(C)[C@H]([C@H](OC(=O)c3ccccc3)[C@]3(O)C[C@H](OC(=O)[C@H](O)[C@@H](NC(=O)c4ccccc4)c4ccccc4)C(C)=C1C3(C)C)[C@]1(OC(C)=O)CO[C@@H]1C[C@@H]2O [Paclitaxel] | – | – | 0.9365 | 0.9526 | 0.9072 | 0.9683 | – | – | – | – | – | –
CC(=O)O[C@@]12CO[C@@H]1C[C@H](O)[C@@]1(C)C(=O)[C@H](O)C3=C(C)[C@@H](OC(=O)[C@H](O)[C@@H](NC(=O)OC(C)(C)C)c4ccccc4)C[C@@](O)([C@@H](OC(=O)c4ccccc4)[C@H]21)C3(C)C [Docetaxel] | – | – | – | – | – | – | resistant | Resistant | −0.5113 | 1.0268 | 0.6693 | −0.6056
Nivolumab | S+ | S+ | 0.9424 | 0.9636 | 0.9018 | 0.6833 | – | – | – | – | – | –
COc1cc([C@@H]2c3cc4c(cc3[C@@H](O[C@@H]3O[C@@H]5CO[C@@H](C)O[C@H]5[C@H](O)[C@H]3O)[C@H]3COC(=O)[C@H]23)OCO4)cc(OC)c1O [Etoposide] | – | – | – | – | – | – | show effectiveness | Sensitive (S+) | 0.4829 | 0.0653 | −0.4472 | 0.0955
O=P1(NCCCl)OCCCN1CCCl (stereo not shown) [Ifosfamide] | – | – | – | – | – | – | show effectiveness | Sensitive (S+) | 0.3183 | 0.8776 | 0.1237 | −0.8671
Pembrolizumab | S+ | S+ | 0.9764 | 0.9717 | 0.9672 | 0.8354 | – | – | – | – | – | –
